Laboratory results: article PMC3149649, “Evidence for a Two-Metal-Ion Mechanism in the Cytidyltransferase KdsB, an Enzyme Involved in Lipopolysaccharide Biosynthesis” (PLoS ONE, 2011)

Assays:
[1] = target: T1, AA-LCKS (LPS-specific CMP-Kdo synthetase, KdsB) (Aquifex aeolicus, UniProt O66914); assay: discontinuous Kdo activation assay, CTP replaced by UTP; type: biochemical; details: co-substrate Kdo; glycine-NaOH pH 9.0 or HEPES-NaOH pH 7.5; 80°C
T1 construct: recombinant from plasmid pT7-kdsB in E. coli BL21-CodonPlus(DE3)-RIL; no tag mentioned; monomer 27 kDa, gel filtration 53 kDa, homodimer
T1 sequence (O66914 whole entry): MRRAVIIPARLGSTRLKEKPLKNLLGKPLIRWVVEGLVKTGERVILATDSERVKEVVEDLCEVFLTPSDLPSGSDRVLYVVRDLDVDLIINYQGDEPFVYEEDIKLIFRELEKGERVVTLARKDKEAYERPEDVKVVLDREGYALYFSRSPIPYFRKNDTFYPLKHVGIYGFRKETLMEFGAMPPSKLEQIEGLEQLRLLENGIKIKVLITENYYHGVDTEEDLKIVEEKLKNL

[2] = target: T1, AA-LCKS (LPS-specific CMP-Kdo synthetase, KdsB); assay: X-ray crystal structure, […] Å; type: binding; details: co-crystallised with 1 mM CTP; two Mg2+ (Mg-A, Mg-B) in active site; pH 7.5; 19°C

Compound | discontinuous Kdo activation assay, CTP replaced by UTP [1] | X-ray crystal structure, 2.10 Å [2]
O=c1ccn([C@@H]2O[C@H](COP(=O)(O)OP(=O)(O)OP(=O)(O)O)[C@@H](O)[C@H]2O)c(=O)[nH]1 [UTP] | AA-LCKS was able to utilize UTP for Kdo activation but not ATP or GTP | 
Nc1ccn([C@@H]2O[C@H](COP(=O)(O)OP(=O)(O)OP(=O)(O)O)[C@@H](O)[C@H]2O)c(=O)n1 [CTP] |  | The CTP substrate is bound to the N-terminal domain in each molecule of AA-LCKS
